{"source": "patent US6673899B2", "about": "“Sodium ion-driven chloride /bi-carbonate exchanger” (JCR Pharmaceuticals Co., Ltd., priority 2000, dated 2004)", "key": {"[1]": {"target": "T1, NCBE (Na+-driven Cl-/HCO3- exchanger) (Mus musculus, UniProt Q5DTL9)", "T1 construct": "expressed in transfected cells; host or cells: Xenopus laevis oocytes injected with NCBE cRNA (pSD5, SP6 transcript)", "T1 sequence (Q5DTL9 1-1088 isoform Q5DTL9-2)": "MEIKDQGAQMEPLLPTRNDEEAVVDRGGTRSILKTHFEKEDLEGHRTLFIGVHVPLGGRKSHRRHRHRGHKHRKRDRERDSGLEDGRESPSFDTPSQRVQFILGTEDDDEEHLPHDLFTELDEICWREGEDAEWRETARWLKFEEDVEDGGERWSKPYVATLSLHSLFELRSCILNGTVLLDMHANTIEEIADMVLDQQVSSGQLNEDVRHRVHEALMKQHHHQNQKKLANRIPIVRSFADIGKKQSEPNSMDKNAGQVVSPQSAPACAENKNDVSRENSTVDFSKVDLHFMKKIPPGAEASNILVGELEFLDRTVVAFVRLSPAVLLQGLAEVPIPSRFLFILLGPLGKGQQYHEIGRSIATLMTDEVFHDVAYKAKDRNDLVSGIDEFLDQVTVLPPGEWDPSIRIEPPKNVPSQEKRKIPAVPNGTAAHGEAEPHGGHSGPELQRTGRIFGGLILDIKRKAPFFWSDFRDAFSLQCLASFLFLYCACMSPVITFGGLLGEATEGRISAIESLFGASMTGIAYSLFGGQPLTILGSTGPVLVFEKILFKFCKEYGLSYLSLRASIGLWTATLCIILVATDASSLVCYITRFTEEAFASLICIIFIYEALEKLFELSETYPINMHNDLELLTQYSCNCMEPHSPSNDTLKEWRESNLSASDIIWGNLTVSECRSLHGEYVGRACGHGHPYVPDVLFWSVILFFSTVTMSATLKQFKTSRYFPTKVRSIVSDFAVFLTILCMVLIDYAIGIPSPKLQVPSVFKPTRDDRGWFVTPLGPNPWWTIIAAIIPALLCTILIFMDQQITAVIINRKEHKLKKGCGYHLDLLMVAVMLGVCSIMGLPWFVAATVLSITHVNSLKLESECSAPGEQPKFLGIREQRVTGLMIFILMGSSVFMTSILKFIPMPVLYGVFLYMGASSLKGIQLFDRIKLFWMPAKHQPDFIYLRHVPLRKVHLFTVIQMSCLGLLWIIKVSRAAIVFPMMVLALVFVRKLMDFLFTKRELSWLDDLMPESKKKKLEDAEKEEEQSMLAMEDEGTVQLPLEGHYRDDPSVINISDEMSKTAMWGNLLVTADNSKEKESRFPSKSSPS", "assay": "22Na+ uptake in NCBE cRNA-injected Xenopus laevis oocytes", "format": "cell-based", "description": "(§1) The coding sequence of NCBE in pSD5 was linearized by digestion with FspI and in vitro transcribed with SP6 RNA polymerase as previously described (Wang, C -Z. et al., Biochem. Biophys. Res. Commun., 220:196-202(1996)). Defolliculated oocytes were injected with NCBE cRNA (50 nl, 0.5 μg/μl) or water and incubated in 1×MBS medium (88 mM NaCl, 1 mM KCl, 0.8 mM MgCl2, 0.4 mM CaCl2, 0.3 mM Ca(NO3)2, 2.4 mM NaHCO3 and 7.5 mM Tris, pH 7.4) for 3-5 days at 18° C. before the studies. The oocytes were preincubated for one hr at 18° C. in the standard solution (100 mM NaCl, 2 mM KCl, 1 mM MgCl2, 1 mM CaCl2, and 8 mM NaHCO3, pH 7.4).\n(§2) For studies of dependency on extracellular Na^+concentration, the oocytes were then incubated in 1.4 ml of either 1, 10, 30 or 100 mM Na^+solution bubbled with 1.5% CO2, pH 7.4 with 0.074 MBq of ^22Na+ (NEN™ Life Science Products, Boston, Mass.). In each solution, the Na^+in the standard solution was substituted with an equal molar amount of choline. A ten μl aliquot was removed from the incubation solution for later determination of ^22Na^+-specific activity. […]\n(§3) The present inventors also examined the effect of DIDS, an inhibitor of anion-transporter, on ^22Na^+uptake. Expression was assessed in the absence or presence of 0.3 mM DIDS. […]"}, "water-injected oocytes": {"tested_on": "water-injected oocytes", "assay": "22Na+ uptake in water-injected Xenopus laevis oocytes (control)", "format": "cell-based", "conditions": "in the presence of 300 μM DIDS, mean ± SE, n=19, 1.6±0.3 in the absence of DIDS", "description": "as §1, §2, §3"}}}
{"smiles": "O=S(=O)(O)c1cc(N=C=S)ccc1C=Cc1ccc(N=C=S)cc1S(=O)(=O)O", "note": "[DIDS, 4,4′-diisothiocyanostilbene-2,2′-disulfonic acid]", "values": [{"measurement": "effect on 22Na+ uptake by NCBE", "setting": "[1]; 300 μM DIDS, NCBE cRNA-injected oocytes (FIG. 5)", "result": "partially inhibit"}, {"measurement": "22Na+ uptake", "setting": "[1]; NCBE cRNA-injected oocytes, in the presence of 300 μM DIDS, 15 min, standard solution, mean ± SE, n=14, 31.4±2.1 in the absence of DIDS", "result": "6.0±0.7", "unit": "nmol/oocyte/hour"}, {"measurement": "22Na+ uptake", "setting": "water-injected oocytes", "result": "2.1±0.4", "unit": "nmol/oocytes/hour"}]}
